From PubChem BioAssay (NCI)
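96-well plates; 48 h exposure; 5 concentrations. Endpoints by linear interpolation between flanking doses. Not reached: highest tested concentration assigned. At the TGI there is no net growth.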

What was measured:
Assay in all cases: NCI tumour cell line growth inhibition, 48 h
[1] = test system: NCI/ADR-RES ovarian
[2] = test system: M14 melanoma
[3] = test system: COLO 205 colon
[4] = test system: EKVX NSCLC
[5] = test system: SK-MEL-2 melanoma
[6] = test system: SK-MEL-5 melanoma
[7] = test system: OVCAR-5 ovarian
[8] = test system: HS 578T breast
[9] = test system: SF-295 CNS
[10] = test system: SF-539 CNS
[11] = test system: HCC-2998 colon
[12] = test system: 786-0 renal
[13] = test system: MALME-3M melanoma
[14] = test system: OVCAR-4 ovarian
[15] = test system: HL-60(TB) leukemia
[16] = test system: SK-MEL-28 melanoma
[17] = test system: UO-31 renal
[18] = test system: MDA-MB-435
[19] = test system: SK-OV-3 ovarian

Structure (SMILES) | TGI [1] [µM] | TGI [2] [µM] | TGI [3] [µM] | TGI [4] [µM] | TGI [5] [µM] | TGI [6] [µM] | TGI [7] [µM] | TGI [8] [µM] | TGI [9] [µM] | TGI [10] [µM] | TGI [11] [µM] | TGI [12] [µM] | TGI [13] [µM] | TGI [14] [µM] | TGI [15] [µM] | TGI [16] [µM] | TGI [17] [µM] | TGI [18] [µM] | TGI [19] [µM]
C=CCOc1ccc(/C(N=Nc2ccccc2)=N/NC(=O)c2ccccc2)cc1OC | > 100 | > 100 | > 100 | > 100 | > 100 | > 100 | > 100 | > 100 | > 100 | > 100 | > 100 | > 100 | > 100 | > 100 | > 100 | > 100 | > 100 | > 100 | –
O=c1[nH]/c(=C/c2ccc(OCc3ccccc3)cn2)c(=O)[nH]/c1=C/c1ccc(Cl)cc1 | > 100 | > 100 | > 100 | > 100 | > 100 | > 100 | > 100 | 2.68 | 29.4 | > 100 | > 100 | > 100 | > 100 | > 100 | > 40.2 | > 100 | > 100 | 0.796 | > 100
CC1=C(O)C(=O)C[C@]2(C)[C@H]3CC=C4[C@@H]5CC(C)(C)CC[C@@H]5C(=O)[C@H](O)[C@@]4(C)[C@]3(C)CC[C@@H]12 | > 50 | > 50 | > 50 | > 50 | > 50 | > 50 | > 50 | > 50 | > 50 | > 50 | > 50 | > 50 | > 50 | > 50 | > 50 | > 50 | > 50 | > 50 | > 50
CC(=O)OC1COC(n2nc(/C=C/c3ccc(Cl)cc3)c(=O)n(/N=C/c3ccccc3)c2=S)C(OC(C)=O)C1OC(C)=O (stereo unspecified) | > 100 | > 100 | > 100 | > 100 | > 100 | > 100 | > 100 | > 100 | > 100 | > 100 | > 100 | > 100 | > 100 | > 100 | > 100 | > 100 | > 100 | > 100 | > 100
CCOC(=O)c1sc2nc(SC)nc3c2c1NCN3c1ccc2c(c1)OCCCO2 | > 100 | > 100 | – | > 100 | > 100 | > 100 | > 100 | 37 | 5.1 | 53.9 | > 100 | 26.8 | > 100 | > 100 | > 100 | > 100 | > 100 | > 100 | 75.7
Cc1nc2ccc(F)cc2c2c1CCO2 | > 100 | > 100 | > 100 | > 100 | > 100 | > 100 | > 100 | > 100 | > 100 | > 100 | > 100 | > 100 | > 100 | > 100 | 55.2 | > 100 | > 100 | > 100 | –
CC(O)(/C=C/c1ccccc1)P(=O)(O)c1ccccc1 (stereo unspecified) | > 100 | > 100 | > 100 | > 100 | > 100 | > 100 | > 100 | > 100 | > 100 | > 100 | > 100 | > 100 | > 100 | > 100 | > 100 | > 100 | – | > 100 | > 100
c1ccc(-c2ccc(-c3cc4ccccc4[nH]3)cc2)cc1 | > 100 | > 100 | > 100 | > 100 | > 100 | > 100 | > 100 | > 100 | > 100 | > 100 | > 100 | > 100 | > 100 | > 100 | > 100 | > 100 | > 100 | > 100 | > 100
COc1cc(Cn2c(=S)ss/c2=N\C(=S)N(C)C)cc(OC)c1OC | > 100 | > 70.7 | > 86.9 | > 100 | > 100 | 56.4 | > 100 | > 100 | 38.5 | > 57.7 | > 95.4 | > 91.3 | > 100 | > 95.6 | > 61.5 | > 100 | > 100 | 15.8 | > 63.1
CCOC(=O)c1cc(C2CCN(CC(C)CC)C2=S)c(-c2cc(C)no2)[nH]1 (stereo unspecified) | > 100 | > 100 | > 100 | > 100 | > 100 | > 100 | > 100 | > 100 | > 100 | > 100 | > 100 | > 100 | > 100 | > 100 | > 100 | > 100 | 82.4 | > 100 | > 100
